Data reported in ChEMBL document CHEMBL5241076, “Natural products and analogs as preventive agents for metabolic syndrome via peroxisome proliferator-activated receptors: An overview” (Eur J Med Chem, 2021).

Columns and labels:
[1] = molecular target: T1, Peroxisome proliferator-activated receptor alpha (Homo sapiens) (UniProt Q07869); assay: Agonist activity at PPARalpha (unknown origin) at 20 uM relative to control; conditions: filed as agonist
T1 sequence (whole entry): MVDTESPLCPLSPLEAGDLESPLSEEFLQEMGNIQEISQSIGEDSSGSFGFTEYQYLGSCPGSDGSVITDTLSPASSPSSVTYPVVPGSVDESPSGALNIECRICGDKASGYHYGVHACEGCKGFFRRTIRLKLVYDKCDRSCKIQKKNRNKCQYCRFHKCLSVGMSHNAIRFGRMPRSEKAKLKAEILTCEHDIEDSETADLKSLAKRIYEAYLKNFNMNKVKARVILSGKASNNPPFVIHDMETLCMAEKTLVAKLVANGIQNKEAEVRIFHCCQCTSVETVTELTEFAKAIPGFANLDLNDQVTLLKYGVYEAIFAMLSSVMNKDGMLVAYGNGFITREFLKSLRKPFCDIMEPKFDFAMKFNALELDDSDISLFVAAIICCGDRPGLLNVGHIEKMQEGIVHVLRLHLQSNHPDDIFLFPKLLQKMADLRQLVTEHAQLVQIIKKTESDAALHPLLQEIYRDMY

[2] = molecular target: T2, Peroxisome proliferator-activated receptor alpha (Homo sapiens, UniProt Q07869); assay: Agonist activity at PPARalpha (unknown origin)
T2 sequence (Q07869 whole entry): T1 sequence (whole entry)

[3] = molecular target: T3, Peroxisome proliferator-activated receptor delta (Homo sapiens) (UniProt Q03181); assay: Agonist activity at PPARdelta (unknown origin) at 20 uM relative to control; conditions: filed as agonist
T3 sequence (whole entry): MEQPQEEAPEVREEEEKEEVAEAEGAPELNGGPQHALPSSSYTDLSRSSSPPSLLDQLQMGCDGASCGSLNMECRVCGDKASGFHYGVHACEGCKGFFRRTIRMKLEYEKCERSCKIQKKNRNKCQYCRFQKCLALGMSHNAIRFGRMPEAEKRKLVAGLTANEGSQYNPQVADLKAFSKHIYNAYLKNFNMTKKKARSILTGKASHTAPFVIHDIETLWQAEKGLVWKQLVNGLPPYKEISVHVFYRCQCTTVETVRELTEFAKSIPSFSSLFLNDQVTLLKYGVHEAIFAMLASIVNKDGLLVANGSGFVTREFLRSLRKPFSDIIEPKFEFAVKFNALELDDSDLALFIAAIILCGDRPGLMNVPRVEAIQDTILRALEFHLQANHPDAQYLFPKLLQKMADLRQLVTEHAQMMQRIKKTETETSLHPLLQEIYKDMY

[4] = molecular target: T4, Peroxisome proliferator-activated receptor gamma (Homo sapiens) (UniProt P37231); assay: Partial agonist activity at PPARgamma (unknown origin) relative to control
T4 sequence (whole entry): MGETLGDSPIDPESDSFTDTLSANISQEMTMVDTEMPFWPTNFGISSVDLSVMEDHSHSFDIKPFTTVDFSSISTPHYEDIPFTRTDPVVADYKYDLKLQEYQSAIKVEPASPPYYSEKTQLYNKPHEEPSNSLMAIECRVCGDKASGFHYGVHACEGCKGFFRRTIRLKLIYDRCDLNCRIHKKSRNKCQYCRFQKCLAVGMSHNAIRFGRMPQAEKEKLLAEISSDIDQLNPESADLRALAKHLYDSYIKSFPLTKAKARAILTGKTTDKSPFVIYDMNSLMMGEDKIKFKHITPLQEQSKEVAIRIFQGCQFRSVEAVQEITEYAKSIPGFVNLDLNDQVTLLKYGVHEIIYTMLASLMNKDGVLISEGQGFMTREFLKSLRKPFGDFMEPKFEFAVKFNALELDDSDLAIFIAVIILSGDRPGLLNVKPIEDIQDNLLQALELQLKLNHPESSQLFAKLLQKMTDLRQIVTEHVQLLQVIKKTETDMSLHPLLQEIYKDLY

[5] = molecular target: T5, Peroxisome proliferator-activated receptor delta (Homo sapiens, UniProt Q03181); assay: Agonist activity at PPARdelta (unknown origin)
T5 sequence (Q03181 whole entry): T3 sequence (whole entry)

[6] = Cmax in Syrian hamster at 100 mg/kg, po; format: ADME, organism-based, Mesocricetus auratus; set-up: dose 100 mg/kg, route po; conditions: in vivo
[7] = molecular target: T1, Peroxisome proliferator-activated receptor alpha (Homo sapiens); assay: Agonist activity at PPARalpha (unknown origin) at 240 uM relative to control
[8] = molecular target: T4, Peroxisome proliferator-activated receptor gamma (Homo sapiens); assay: Agonist activity at PPARgamma (unknown origin) at 80 uM relative to control; conditions: filed as agonist
[9] = Cmax in mouse at 100 mg/kg, PO; format: ADME, organism-based; set-up: dose 100 mg/kg, route po; conditions: in vivo
[10] = Half life in mouse at 100 mg/kg, po; format: ADME, organism-based; conditions: in vivo
[11] = molecular target: T4, Peroxisome proliferator-activated receptor gamma (Homo sapiens); assay: Agonist activity at PPARgamma (unknown origin) at 0.1 to 25 uM relative to control; conditions: dose 0.1-25 µM
[12] = Half life in Syrian hamster at 100 mg/kg, po; format: ADME, organism-based, Mesocricetus auratus; conditions: in vivo
[13] = molecular target: T1, Peroxisome proliferator-activated receptor alpha (Homo sapiens); assay: Agonist activity at PPARalpha (unknown origin) relative to control; conditions: filed as agonist
[14] = molecular target: T2, Peroxisome proliferator-activated receptor alpha; assay: Binding affinity to PPARalpha (unknown origin)
[15] = molecular target: T6, Peroxisome proliferator-activated receptor gamma (Homo sapiens, UniProt P37231); assay: Binding affinity to PPARgamma (unknown origin)
T6 sequence (P37231 whole entry): T4 sequence (whole entry)

Question: What does the source list for `O=c1c(O)c(-c2ccc(O)cc2)oc2cc(O)cc(O)c12` [KAEMPFEROL]?
Answer: Activity [1]: 433%; EC50 [2]: 15.5 µM; Activity [3]: 155%; Activity ([4]; filed as partial agonist): 45%; EC50 [5]: 341 µM

Question: With `C=C1CC/C=C(\C)CC[C@@H]2[C@@H]1CC2(C)C` [BETA-CARYOPHYLLENE] as the molecule, how does the EC50 [2] read?
Answer: Its EC50 is 9.58 µM.

Question: With `C=CCc1ccc(O)c(-c2cc(CC=C)ccc2O)c1` [MAGNOLOL] as the molecule, how does the EC50 [5] read?
Answer: Its EC50 is 11.4 µM.

Question: Which Cmax [6] does the source give for `COc1cc(/C=C/C(=O)CC(=O)/C=C/c2ccc(O)c(OC)c2)ccc1O` [CURCUMIN] here?
Answer: The Cmax was 2.35 ng/mL.

Question: With `O=C1C[C@@H](c2ccc(O)cc2)Oc2cc(O)cc(O)c21` as the molecule, how does the Activity [7] read?
Answer: The Activity was 24%.

Question: And the Activity [8]?
Answer: The Activity was 57%.

Question: Which Cmax [9] does the source give for `COc1cc(CCc2ccccc2)c(C(=O)O)c(O)c1CC=C(C)C` [AMORFRUTIN A] here?
Answer: Its Cmax is 42400 ng/mL.

Question: What about the half-life [10] of the same molecule?
Answer: The half-life was 2 h.

Question: Which Activity [11] does the source give for `CCCCCc1cc2c(c(O)c1C(=O)O)[C@@H]1C=C(C)CC[C@H]1C(C)(C)O2` here?
Answer: The Activity was 17%.

Question: Which results are given for `COc1cc(/C=C/c2cc(/C=C/c3ccc(O)c(OC)c3)n(-c3ccc(Cl)c(Cl)c3)n2)ccc1O`?
Answer: half-life [12]: 2.8 h; Cmax [6]: 1390 ng/mL

Question: For `COc1ccc2cc3[n+](cc2c1OC)CCc1cc2c(cc1-3)OCO2` [BERBERINE], which Activity [13] is on record?
Answer: Its Activity is 102%.

Question: And the EC50 [2]?
Answer: Its EC50 is 0.58 µM.

Question: What about the Ki [14] of the same molecule?
Answer: Its Ki is 0.73 µM.

Question: What about the EC50 [5] of the same molecule?
Answer: Its EC50 is 14 µM.

Question: Which Activity [4] does the source give for `O=c1c(O)c(-c2ccc(O)c(O)c2)oc2cc(O)cc(O)c12` here?
Answer: The Activity was 20%.

Question: Which Ki [15] does the source give for `Cc1coc2c1C(=O)C(=O)c1c-2ccc2c1CCCC2(C)C` [TANSHINONE IIA] here?
Answer: The Ki was 2.56 µM.

Question: With `CC(C)=CCC[C@@](C)(O)[C@H]1CC[C@]2(C)[C@@H]1[C@H](O)C[C@@H]1[C@@]3(C)CC[C@H](O)C(C)(C)[C@@H]3[C@@H](O)C[C@]12C` as the molecule, how does the Ki [15] read?
Answer: The Ki was 54.2 µM.
